Laboratory results taken from US8916711B2, “Imidazothiazole-chalcone derivatives as potential anticancer agents and process for the preparation thereof” (Council of Scientific and Industrial Research, priority 2009, dated 2014).

How the values were obtained:
SR = assay: NCI in vitro cytotoxicity (SRB, 48 h), Leukemia panel; assay type: cell-based; settings: Homo sapiens
Procedure: (§1) The imidazothiazole-chalcone hybrids 7a, 7e, 7f, 8f and 19e have been tested against sixty human tumour cell lines derived from nine cancer types (leukemia, non-small cell lung cancer, colon cancer, CNS cancer, melanoma, ovarian cancer, renal cancer, prostate cancer and breast cancer) as per NCI protocol. For each compound, dose response curves for individual cell lines have been measured at a minimum of five concentrations at 10 fold dilutions. A protocol of 48 h continuous drug exposure has been used, and a sulforhodamine B (SRB) protein assay was used to estimate cell viability or growth. The concentration for 50% cell growth inhibition (GI50), total cell growth inhibition (TGI, 0% growth) and 50% cell death (LC50, […]) compared with the control has been calculated (Table-1).

MCF7 = assay: NCI in vitro cytotoxicity (SRB, 48 h), Breast panel; assay type: cell-based; settings: Homo sapiens, MCF7; MCF-7; Table 4; read-out: Comparative efficacy
Procedure: as §1

MDA-MB-231/ATCC = assay: as above; assay type: cell-based; settings: Homo sapiens, Table 4, read-out: Comparative efficacy
Procedure: as §1

Question: For `O=C(/C=C/c1c(-c2ccc(F)cc2)nc2sccn12)c1ccc2ccccc2c1` [Compound 12e, (E)-3-(6-(4-fluorophenyl)imidazo[2,1-b]thiazol-5-yl)-1-(naphthalen-2-yl)prop-2-en-1-one], which melting point is on record?
Answer: The melting point was 216 to 218 °C.

Question: Which melting point does the source give for `COc1ccc(-c2nc3sccn3c2/C=C/C(=O)c2ccc3c(c2)OCO3)cc1` [Compound 11a, (E)-1-(benzo[d][1,3]dioxol-5-yl)-3-(6-(4-methoxyphenyl)imidazo[2,1-b]thiazol-5-yl)prop-2-en-1-one] here?
Answer: Its melting point is 189 to 191 °C.

Question: For `COc1cc(C(=O)/C=C/c2c(C(F)(F)F)nc3sc(C)cn23)cc(OC)c1OC` [Compound 19f, (E)-3-(2-methyl-6-(trifluoromethyl)imidazo[2,1-b]thiazol-5-yl)-1-(3,4,5-trimethoxyphenyl)prop-2-en-1-one], which GI50 (SR) is on record?
Answer: The GI50 was 0.8 µM.

Question: For `COc1ccc(-c2nc3sccn3c2/C=C/C(=O)c2cccs2)cc1` [Compound 16a, (E)-3-(6-(4-methoxyphenyl)imidazo[2,1-b]thiazol-5-yl)-1-(thiophen-2-yl)prop-2-en-1-one], which melting point is on record?
Answer: The melting point was 169 to 172 °C.

Question: With `O=C(/C=C/c1c(-c2ccc(F)cc2)nc2sccn12)c1ccc(-c2ccccc2)cc1` [Compound 13e, (E)-1-(biphenyl-4-yl)-3-(6-(4-fluorophenyl)imidazo[2,1-b]thiazol-5-yl)prop-2-en-1-one] as the compound, how does the melting point read?
Answer: Its melting point is 194 to 196 °C.

Question: For `COc1ccc(-c2nc3sccn3c2/C=C/C(=O)c2ccc[nH]2)cc1` [Compound 17a, (E)-3-(6-(4-methoxyphenyl)imidazo[2,1-b]thiazol-5-yl)-1-(1H-pyrrol-2-yl)prop-2-en-1-one], which melting point is on record?
Answer: Its melting point is 177 to 179 °C.

Question: What does the source list for `C1=Nc2c3c(ccc2=N1)=NCS3` [C, imidazobenzothiazole, reference compound]?
Answer: IC50 (MCF7): 32.5 µM; IC50 (MDA-MB-231/ATCC): 43.2 µM

Question: For `Cc1ccc(C(=O)/C=C/c2c(-c3ccc(F)cc3)nc3sccn23)cc1C` [Compound 9e, (E)-1-(3,4-dimethylphenyl)-3-(6-(4-fluorophenyl)imidazo[2,1-b]thiazol-5-yl)prop-2-en-1-one], which melting point is on record?
Answer: The melting point was 210 to 213 °C.

Question: For `COc1ccc(C(=O)/C=C/c2c(-c3ccc(F)cc3)nc3sccn23)cc1OC` [Compound 8e, (E)-1-(3,4-dimethoxyphenyl)-3-(6-(4-fluorophenyl)imidazo[2,1-b]thiazol-5-yl)prop-2-en-1-one], which melting point is on record?
Answer: The melting point was 221 to 223 °C.
